Experimental data published in US11311522B1 (Cavion, Inc., priority 2018, dated 2022).

What was measured:
[1] = tested on: patients with essential tremor; assay: T-CALM: Patient Global Impression of Change (PGIC); type: in vivo, human; conditions: for PGIC (rescaled −3 to 3), LS mean (SE) / PGIC, LS mean difference from placebo (95% CI): ANCOVA; for 0 - no change / 1 - minimally improved / 2 - much improved / 3 - very much improved / −1 - minimally worse / −2 - much worse / −3 - very much worse: PGIC
Description: Treatment success as measured by PGIC was summarized using descriptive statistics.

[2] = PN003: safety and tolerability; type: in vivo; conditions: for At least 1 adverse event / Disorientation / Dry mouth / Gastrointestinal Disorders / Hallucinations visual / Headache / Insomnia / Nausea / Nervous System Disorders / Psychiatric Disorders / Somnolence / Vivid dreams: Study PN003/Part I and Part II
Description: Additional adverse events, including mood swings, feeling frightened, laughing intermittently, difficulty moving hands, feeling weak, enhanced taste, loss of fine sensation in fingertips, some loss of sensation at skin level (all over body), and out of body feeling, were reported as the day progressed. All adverse events were mild or moderate in severity. Most events began minutes to hours after dosing, and all had resolved by 3 days after dosing. The adverse events that the subject experienced were described as “mood swings” and led to discontinuation of dosing. […] In addition, they reported feeling angry towards another subject, feeling dizzy/drunk, intense daydreams, shaking/trembling, and sweating. All adverse events were mild in severity, and all were considered possibly related to the study drug. The last dose of CX-8998 was not administered. All adverse events resolved after discontinuation of the study drug. […] The subject experienced nervous system-related events of gradually increasing severity, including lightheadedness, euphoria, tiredness, headache, hard to follow thoughts, vulnerable thoughts and emotions, feeling flat, and weak in the muscles. All adverse events were mild or moderate in severity, and all were considered possibly related to the study drug. The last dose of CX-8998 was not administered. All adverse events resolved after discontinuation of the study drug. […] Oxygen saturation and serum glucose levels were within normal limits, but the subject's blood pressure was low at the time of the event (76/43 mmHg, with a pulse rate of 59 bpm). […] The event was judged by the investigator as moderate in severity and as probably related to the study drug. The subject was discontinued from the study because of ongoing nausea and feelings of weakness and lethargy. […] The subject was not on telemetry at the time. The investigator considered the event to be a vasovagal reaction (moderate in severity) and assessed the event as unrelated to the study drug. The subject continued in the study and completed the planned 7 days of treatment. […] A washout period of at least 2 weeks separated the treatment periods. […] The PSG recordings were initiated at each subject's habitual bedtime and continued for 8 hours. In addition to PSG recordings, subjects were evaluated on the next day with subjective measures of sleep quality (Leeds Sleep Evaluation Questionnaire) and sleepiness (Karolinska Sleepiness Scale) and with cognitive and motor tasks to assess next-morning residual effects. An interim analysis of the primary endpoint (slow wave activity in the first one-third of sleep) was performed after 24 subjects had completed Part I of the study (Section 5.3.3.1.2). The study was adaptively designed to allow a re-estimation of the sample size after the interim analysis. Based on the results of the interim analysis, the study could be stopped if the efficacy criterion (increase in slow wave activity, p<0.05) or futility criterion (p>0.25) was achieved. If neither criterion was met, a re-estimation of the sample size was specified, with the ability to enroll up to 24 additional subjects. […] As in Part I of the study, PSG recordings were initiated at each subject's habitual bedtime and continued for 8 hours, and subjects were evaluated on the next day with subjective measures of sleep quality (Leeds Sleep Evaluation Questionnaire) and sleepiness (Karolinska Sleepiness Scale) and with cognitive and motor tasks to assess next-morning residual effects.
All reported adverse experiences were temporary and generally of mild intensity.
The visual disturbances tended to cease with eye opening and to recur with eye closure and were generally not disturbing to the subjects. […] No serious adverse events were reported, and none of the subjects discontinued treatment because of an adverse event. […] 5.3.3.1.3.2 Other Safety Assessments No clinically significant trends in safety laboratory parameters or vital signs were observed. […]

[3] = single dose 4 mg, N = 12 exposures
[4] = single dose 8 mg, N = 9 exposures
[5] = single dose 12 mg, N = 54 exposures

CC(C)c1ccc(CC(=O)N[C@H](C)c2ccc(OCC(F)(F)F)cn2)cc1 [CX-8998]
PGIC Improved, percent ([1]; Day 15): 66.67% | PGIC No Change, number ([1]; Day 15): 11 | PGIC No Change, percent ([1]; Day 15): 28.2% | PGIC Worsened, number ([1]; Day 15): 2 | PGIC Worsened, percent ([1]; Day 15): 5.12% | PGIC (rescaled −3 to 3), Mean (SD) ([1]; Day 15, N = 39): 1 (1.0) | PGIC (rescaled −3 to 3), Median (minimum, maximum) ([1]; Day 15, N = 39): 1 (−2, 3) | PGIC Category 0 No change, patients n (%) ([1]; Day 15, N = 39): 11 (28%) | PGIC Category 1 Minimally improved, patients n (%) ([1]; Day 15, N = 39): 17 (44%) | PGIC Category 2 Much improved, patients n (%) ([1]; Day 15, N = 39): 8 (21%) | PGIC Category 3 Very much improved, patients n (%) ([1]; Day 15, N = 39): 1 (3%) | PGIC Category −1 Minimally worse, patients n (%) ([1]; Day 15, N = 39): 1 (3%) | PGIC Category −2 Much worse, patients n (%) ([1]; Day 15, N = 39): 1 (3%) | PGIC Category −3 Very much worse, patients n (%) ([1]; Day 15, N = 39): 0 | PGIC (rescaled −3 to 3), LS mean (SE) ([1]; Day 15): 0.9 (0.17) | PGIC, LS mean difference from placebo (95% CI) ([1]; Day 15): 0.7 (0.2, 1.1) | PGIC Improved, number ([1]; Day 28): 20 | PGIC Improved, percent ([1]; Day 28): 54.05% | PGIC No Change, number ([1]; Day 28): 14 | PGIC No Change, percent ([1]; Day 28): 37.84% | PGIC Worsened, number ([1]; Day 28): 3 | PGIC Worsened, percent ([1]; Day 28): 8.11% | PGIC Category 0 No change, patients n (%) ([1]; Day 28, N = 39): 14 (36%) | PGIC Category 1 Minimally improved, patients n (%) ([1]; Day 28, N = 39): 10 (26%) | PGIC Category 2 Much improved, patients n (%) ([1]; Day 28, N = 39): 7 (18%) | PGIC Category 3 Very much improved, patients n (%) ([1]; Day 28, N = 39): 3 (8%) | PGIC Category −1 Minimally worse, patients n (%) ([1]; Day 28, N = 39): 1 (3%) | PGIC Category −2 Much worse, patients n (%) ([1]; Day 28, N = 39): 1 (3%) | PGIC Category −3 Very much worse, patients n (%) ([1]; Day 28, N = 39): 1 (3%) | PGIC (rescaled −3 to 3), Mean (SD) ([1]; Day 28, N=37): 1 (1.3) | PGIC (rescaled −3 to 3), Median (minimum, maximum) ([1]; Day 28, N=37): 1 (−3, 3) | PGIC (rescaled −3 to 3), LS mean (SE) ([1]; Day 28): 0.8 (0.19) | PGIC, LS mean difference from placebo (95% CI) ([1]; Day 28): 0.4 (−0.1, 0.9) | 0 - no change ([1]; Day 15): 11 (28%) n (%) | 1 - minimally improved ([1]; Day 15): 17 (44%) n (%) | 2 - much improved ([1]; Day 15): 8 (21%) n (%) | 3 - very much improved ([1]; Day 15): 1 (3%) n (%) | −1 - minimally worse ([1]; Day 15): 1 (3%) n (%) | −2 - much worse ([1]; Day 15): 1 (3%) n (%) | −3 - very much worse ([1]; Day 15): 0 n (%) | 0 - no change ([1]; Day 28): 14 (36%) n (%) | 1 - minimally improved ([1]; Day 28): 10 (26%) n (%) | 2 - much improved ([1]; Day 28): 7 (18%) n (%) | 3 - very much improved ([1]; Day 28): 3 (8%) n (%) | −1 - minimally worse ([1]; Day 28): 1 (3%) n (%) | −2 - much worse ([1]; Day 28): 1 (3%) n (%) | −3 - very much worse ([1]; Day 28): 1 (3%) n (%) | Exposures with increase from baseline of ≥30 and ≤60 msec in QTc ([2]; 8 mg): 11.1% | Exposures with increase from baseline of ≥30 and ≤60 msec in QTc ([2]; 12 mg): 5.6% | At least 1 adverse event ([2]; Any Dose, N = 75 exposures): 33 (44.0) n (%) | Disorientation ([2]; Any Dose, N = 75 exposures): 3 (4.0) n (%) | Dry mouth ([2]; Any Dose, N = 75 exposures): 2 (2.7) n (%) | Gastrointestinal Disorders ([2]; Any Dose, N = 75 exposures): 7 (9.3) n (%) | Hallucinations visual ([2]; Any Dose, N = 75 exposures): 4 (5.3) n (%) | Headache ([2]; Any Dose, N = 75 exposures): 9 (12.0) n (%) | Insomnia ([2]; Any Dose, N = 75 exposures): 3 (4.0) n (%) | Nausea ([2]; Any Dose, N = 75 exposures): 2 (2.7) n (%) | Nervous System Disorders ([2]; Any Dose, N = 75 exposures): 15 (20.0) n (%) | Psychiatric Disorders ([2]; Any Dose, N = 75 exposures): 17 (22.7) n (%) | Somnolence ([2]; Any Dose, N = 75 exposures): 6 (8.0) n (%) | Vivid dreams ([2]; Any Dose, N = 75 exposures): 4 (5.3) n (%) | At least 1 adverse event [2, 3]: 4 (33.3) n (%) | Disorientation [2, 3]: 0 n (%) | Dry mouth [2, 3]: 0 n (%) | Gastrointestinal Disorders [2, 3]: 1 (8.3) n (%) | Hallucinations visual [2, 3]: 2 (16.7) n (%) | Headache [2, 3]: 1 (8.3) n (%) | Insomnia [2, 3]: 1 (8.3) n (%) | Nausea [2, 3]: 1(8.3) n (%) | Nervous System Disorders [2, 3]: 2 (16.7) n (%) | Psychiatric Disorders [2, 3]: 3 (25.0) n (%) | Somnolence [2, 3]: 1 (8.3) n (%) | Vivid dreams [2, 3]: 0 n (%) | At least 1 adverse event [2, 4]: 2 (22.2) n (%) | Disorientation [2, 4]: 0 n (%) | Dry mouth [2, 4]: 0 n (%) | Gastrointestinal Disorders [2, 4]: 1 (11.1) n (%) | Hallucinations visual [2, 4]: 0 n (%) | Headache [2, 4]: 0 n (%) | Insomnia [2, 4]: 0 n (%) | Nausea [2, 4]: 0 n (%) | Nervous System Disorders [2, 4]: 1 (11.1) n (%) | Psychiatric Disorders [2, 4]: 0 n (%) | Somnolence [2, 4]: 1 (11.1) n (%) | Vivid dreams [2, 4]: 0 n (%) | At least 1 adverse event [2, 5]: 27 (50.0) n (%) | Disorientation [2, 5]: 3 (5.6) n (%) | Dry mouth [2, 5]: 2 (3.7) n (%) | Gastrointestinal Disorders [2, 5]: 5 (9.3) n (%) | Hallucinations visual [2, 5]: 2 (3.7) n (%) | Headache [2, 5]: 8 (14.8) n (%) | Insomnia [2, 5]: 2 (3.7) n (%) | Nausea [2, 5]: 1 (1.9) n (%) | Nervous System Disorders [2, 5]: 12 (22.2) n (%) | Psychiatric Disorders [2, 5]: 14 (25.9) n (%) | Somnolence [2, 5]: 4 (7.4) n (%) | Vivid dreams [2, 5]: 4 (7.4) n (%)
